According to patent publication US10669271B2, “Heterocyclic compounds as immunomodulators” (Incyte Corporation, priority 2018, dated 2020):

What was measured:
[1] = target: PD-L1 (Homo sapiens (Human), UniProt Q9NZQ7); test: PD-L1 whole blood internalization assay; assay type: cell-based; conditions: 1 ng/ml human interferon γ, PD-L1 expression on CD14+ cells, read-out: Whole Blood (24 HR) IC50
Method in brief: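 Normal human whole blood was exposed to a range of test compound concentrations together with 1 ng/ml human interferon γ, then stained for PD-L1 and CD14 for 30 minutes at room temperature in the dark. After red cell lysis/fixation and centrifugation, CD14+ cells were analyzed by flow cytometry for PD-L1 MFI, and IC50 values came from percent inhibition versus log concentration fits.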

[2] = target: PD-1/PD-L1 (Homo sapiens (Human), UniProt Q9NZQ7); test: Homogeneous Time-Resolved Fluorescence (HTRF) PD-1/PD-L1 binding assay; conditions: recombinant human PD-1 and PD-L1, 25° C., pH 7.4
Method in brief: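 His-tagged PD-L1 (19-238, 10 nM) and Fc-tagged PD-1 (25-167, 3 nM) preincubated 40 min with inhibitors in PBS pH 7.4, 0.05% Tween-20, 0.1% BSA, 1% DMSO, 25 °C. Eu anti-IgG (1 nM) and anti-His-APC (20 nM) added, 60 min at 25 °C; 665/620 nm ratio fitted for IC50.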

[3] = tested on: U2OS/PD-L1 cells and Jurkat-PD-1-SHP cells; test: Src homology region 2 domain-containing phosphatase (SHP) assay; assay type: cell-based; conditions: Homo sapiens; U2OS/PD-L1 cells with Jurkat-PD-1-SHP cells, 2 hours
Method in brief: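 U2OS/PD-L1 cells (5000/well) in RPMI1640 with 1% FBS were treated with serially diluted compounds (0.05% DMSO final) and co-incubated with 5,000 Jurkat-PD-1-SHP cells for 2 h at 37 °C. PathHunter enzyme-fragment chemiluminescence was read after 1 h at room temperature. IC50 came from percent-of-control activity versus log concentration.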

[4] = tested on: PD-L1 aAPC/CHO-K1 cells and Jurkat-PD-1-NFAT effector cells; test: Nuclear factor of activated T-cells (NFAT) assay; assay type: cell-based; conditions: Cricetulus griseus; PD-L1 aAPC/CHO-K1 cells with Jurkat-PD-1-NFAT effector cells, 24 hours
Method in brief: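 PD-L1 aAPC/CHO-K1 cells co-cultured with Jurkat-PD-1-NFAT effector cells in RPMI 1640 with 1% FBS, compound top concentration 2 μM, 0.4% DMSO, 24 h at 37 °C. Bio-Glo luminescence read; fold induction normalized to DMSO wells, maximum induction relative to control compound, EC50 from percent control activity versus log concentration.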

PD-L1, sequence (Q9NZQ7 19-290): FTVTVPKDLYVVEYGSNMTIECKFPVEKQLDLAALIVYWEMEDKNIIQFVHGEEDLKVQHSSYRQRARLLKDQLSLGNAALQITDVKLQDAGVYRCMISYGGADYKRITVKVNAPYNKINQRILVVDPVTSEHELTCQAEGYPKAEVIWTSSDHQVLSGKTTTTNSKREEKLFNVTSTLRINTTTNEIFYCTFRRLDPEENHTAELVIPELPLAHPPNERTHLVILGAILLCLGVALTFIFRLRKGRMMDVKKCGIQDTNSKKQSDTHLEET
PD-1/PD-L1, sequence (Q9NZQ7 19-238): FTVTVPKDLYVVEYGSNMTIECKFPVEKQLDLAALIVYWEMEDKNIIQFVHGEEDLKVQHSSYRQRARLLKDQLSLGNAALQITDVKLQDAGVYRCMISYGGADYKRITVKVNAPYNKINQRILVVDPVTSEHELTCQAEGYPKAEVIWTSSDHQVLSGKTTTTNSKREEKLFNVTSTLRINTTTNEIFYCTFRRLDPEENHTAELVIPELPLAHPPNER

| SMILES | IC50 [1] [nM] | IC50 [2] [nM] | IC50 [3] [nM] | EC50 [4] [nM] |
| --- | --- | --- | --- | --- |
| Cc1c(Nc2nc(C(F)F)nc3cc(CN4CC[C@@H](O)C4)cnc23)cccc1-c1cccc(-c2nc3cc(CN4CCC(C(=O)O)CC4)cc(C#N)c3o2)c1C [Example 16, (R)-1-((7-cyano-2-(3′-(2-(difluoromethyl)-7-((3-hydroxypyrrolidin-1-yl)methyl)pyrido[3,2-d]pyrimidin-4-ylamino)-2,2′-dimethylbiphenyl-3-yl)benzo[d]oxazol-5-yl)methyl)piperidine-4-carboxylic Acid] | 10 to 100 | ≤ 10 | ≤ 10 | ≤ 10 |
| Cc1c(Nc2nc(C(F)F)nc3cc(CN4CC[C@@H](O)C4)cnc23)cccc1-c1cccc(-c2nc3cc(CN4CC[C@@H](C(=O)O)C4)cc(C#N)c3o2)c1C [Example 17, (R)-1-((7-cyano-2-(3′-(2-(difluoromethyl)-7-(((R)-3-hydroxypyrrolidin-1-yl)methyl)pyrido[3,2-d]pyrimidin-4-ylamino)-2,2′-dimethylbiphenyl-3-yl)benzo[d]oxazol-5-yl)methyl)pyrrolidine-3-carboxylic Acid] | 10 to 100 | ≤ 10 | ≤ 10 | 10 to 100 |
| Cc1c(Nc2nc(C(F)F)nc3cc(CN4CC[C@@H](O)C4)cnc23)cccc1-c1cccc(-c2nc3cc(CN4CC[C@@](C)(C(=O)O)C4)cc(C#N)c3o2)c1C [Example 18, (R)-1-((7-cyano-2-(3′-(2-(difluoromethyl)-7-(((R)-3-hydroxypyrrolidin-1-yl)methyl)pyrido[3,2-d]pyrimidin-4-ylamino)-2,2′-dimethylbiphenyl-3-yl)benzo[d]oxazol-5-yl)methyl)-3-methylpyrrolidine-3-carboxylic Acid] | 10 to 100 | ≤ 10 | ≤ 10 | 10 to 100 |
| Cc1c(Nc2nc(C3CC3)nc3cc(CN4CC[C@@H](O)C4)cnc23)cccc1-c1cccc(-c2nc3cc(CN4CC[C@@H](C(=O)O)C4)cc(C#N)c3o2)c1C [Example 28, (R)-1-((7-cyano-2-(3′-(2-cyclopropyl-7-(((R)-3-hydroxypyrrolidin-1-yl)methyl)pyrido[3,2-d]pyrimidin-4-ylamino)-2,2′-dimethylbiphenyl-3-yl)benzo[d]oxazol-5-yl)methyl)pyrrolidine-3-carboxylic Acid] | 100 to 500 | ≤ 10 | 10 to 100 | 10 to 100 |
| Cc1c(Nc2nc(N)nc3cc(CN4CC[C@@H](O)C4)cnc23)cccc1-c1cccc(-c2nc3cc(CN4CCC(C(=O)O)CC4)cc(C#N)c3o2)c1C [Example 29, (R)-1-((2-(3′-(2-amino-7-((3-hydroxypyrrolidin-1-yl)methyl)pyrido[3,2-d]pyrimidin-4-ylamino)-2,2′-dimethylbiphenyl-3-yl)-7-cyanobenzo[d]oxazol-5-yl)methyl)piperidine-4-carboxylic Acid] | 10 to 100 | ≤ 10 | ≤ 10 | 10 to 100 |
| Cc1c(Nc2nc(C(F)F)nc3cc(CN4CC[C@@](C)(O)C4)cnc23)cccc1-c1cccc(-c2nc3cc(CN4CCC(C(=O)O)CC4)cc(C#N)c3o2)c1C [Example 30, (R)-1-((7-cyano-2-(3′-(2-(difluoromethyl)-7-((3-hydroxy-3-methylpyrrolidin-1-yl)methyl)pyrido[3,2-d]pyrimidin-4-ylamino)-2,2′-dimethylbiphenyl-3-yl)benzo[d]oxazol-5-yl)methyl)piperidine-4-carboxylic Acid] | 10 to 100 | ≤ 10 | ≤ 10 | ≤ 10 |
| Cc1c(Nc2nc(C(F)F)nc3cc(CN4CC[C@](C)(O)C4)cnc23)cccc1-c1cccc(-c2nc3cc(CN4CCC(C(=O)O)CC4)cc(C#N)c3o2)c1C [Example 31, (S)-1-((7-cyano-2-(3′-(2-(difluoromethyl)-7-((3-hydroxy-3-methylpyrrolidin-1-yl)methyl)pyrido[3,2-d]pyrimidin-4-ylamino)-2,2′-dimethylbiphenyl-3-yl)benzo[d]oxazol-5-yl)methyl)piperidine-4-carboxylic Acid] | 10 to 100 | ≤ 10 | ≤ 10 | ≤ 10 |
